According to the supplement of paper PMC11451515:

Tests used:
Experiment in all cases: AUC of viability dose-response curve (% viability x log10 dose units); higher = less sensitive
Conditions in all cases: 48 h
SEM cells = tested on: SEM cells
Outline: (§1)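 Leukemia cells adapted to each medium (500 or 1000 cells/well, 1536-well plates) were exposed to library compounds in DMSO for 48 h at 37°C at 11 threefold doses, 47 μM to 0.79 nM. Luminescence by CellTiter-Glo One was normalised per plate to DMSO and cell-free wells, then fitted with a four-parameter log-logistic curve on log10 dose. Curves above full viability were scaled and quality-control failures removed before area under the curve was integrated by trapezoidal rule.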

P12-Ichikawa = tested on: P12-Ichikawa
Outline: as §1

NOMO1 = tested on: NOMO1
Outline: as §1

[1] = RPMI 5 mM glucose + 10% dialyzed FBS

Row | Structure (SMILES) | AUC of viability dose-response curve (SEM cells; HPLM + 10% dialyzed FBS) | AUC of viability dose-response curve (SEM cells; RPMI 5 mM glucose + 10% FBS) | AUC of viability dose-response curve (SEM cells; [1]) | AUC of viability dose-response curve (P12-Ichikawa; HPLM + 10% dialyzed FBS) | AUC of viability dose-response curve (P12-Ichikawa; RPMI 5 mM glucose + 10% FBS) | AUC of viability dose-response curve (P12-Ichikawa; [1]) | AUC of viability dose-response curve (NOMO1; HPLM + 10% dialyzed FBS) | AUC of viability dose-response curve (NOMO1; RPMI 5 mM glucose + 10% FBS) | AUC of viability dose-response curve (NOMO1; [1])
1 | C1CCC(C(CC2CCCCN2)C2CCCCC2)CC1 (centres undefined) | 429 | 429 | 405 | 470 | 457 | 465 | 451 | 454 | 446
2 | ClC1=CC(=CC=C1)N2CCN(CCCN3\N=C4\C=C/C=C\N4C3=O)CC2 | 419 | 446 | 464 | 453 | 473 | 468 | 465 | 453 | 451
3 | C[S+](=O)([O-])N(Cc1ccco1)CC(O)Cn1c2ccccc2c2ccccc21 (centres undefined) | 407 | 396 | 381 | 436 | 414 | 409 | 421 | 415 | 417
4 | CCC(=O)OCC(=O)[C@@]1(OC(=O)CC)[C@@H](C)C[C@H]2[C@@H]3CCC4=CC(=O)C=C[C@]4(C)[C@@]3(F)[C@@H](O)C[C@@]21C | 426 | 390 | 372 | 351 | 335 | 317 | 360 | 408 | 391
5 | CC1=CC=CC=C1CN2C(=O)C/3=C(/CCN(CC4=CC=CC=C4)C3)N\5CC\N=C25 | 410 | 376 | 391 | 418 | 417 | 418 | 388 | 393 | 384
6 | N=C(N)NC(=O)c1nc(Cl)c(N)nc1N | 446 | 464 | 453 | 389 | 393 | 430 | 364 | 342 | 365
7 | CC[C@H]1/C=C\C=C/C[C@@H](C)[C@H](O)[C@@](C)(O)C(=O)[C@@H](C)[C@H](O)[C@@H](C)C(=O)[C@@H](C)[C@H](O)[C@@H](C)/C=C/C(=O)O[C@@H]2[C@H](C)[C@H](CC1)O[C@]1(CC[C@H](C)[C@H](C[C@@H](C)O)O1)[C@H]2C | 362 | 340 | 354 | 389 | 388 | 363 | 368 | 331 | 324
8 | O=C(NC[C@H]1CN(c2ccc(N3CCOCC3=O)cc2)C(=O)O1)c1ccc(Cl)s1 | 423 | 459 | 444 | 372 | 376 | 395 | 345 | 312 | 345
9 | Clc1cc(Cl)cc(CNc2ncncc2-c2ccc3c(c2)OCO3)c1 | 441 | 437 | 435 | 431 | 429 | 450 | 414 | 412 | 418
10 | CC\1=C(C(=O)N(\C=C1)C2=CC=C(C=C2)C3=NC=CO3)/C4=CC5=CN=C(N)N=C5C=C4 | 383 | 387 | 350 | 472 | 467 | 465 | 470 | 456 | 472
11 | COc1cc2nc(N3CCCN(C)CC3)nc(NC3CCN(Cc4ccccc4)CC3)c2cc1OC | 389 | 416 | 419 | 407 | 401 | 385 | 378 | 406 | 384
12 | CC(C)(C)C(=O)Oc1ccc([S+](=O)([O-])Nc2ccccc2C(=O)NCC(=O)O)cc1 | 465 | 436 | 471 | 416 | 423 | 420 | 428 | 437 | 443
13 | CC(C)Oc1cc(Nc2nc(N[C@@H](C)c3ccc(F)cn3)ncc2Cl)n[nH]1 | 319 | 310 | 291 | 344 | 349 | 366 | 449 | 409 | 412
14 | C\C1=C\C(=O)C2=C(C=CC=C2)C1=O | 464 | 458 | 435 | 465 | 440 | 468 | 466 | 460 | 456
15 | CC(C)[C@@H](C[S+](=O)([O-])C(C)C)N1C(=O)[C@@](C)(CC(=O)O)C[C@H](c2cccc(Cl)c2)[C@H]1c1ccc(Cl)cc1 | 355 | 289 | 360 | 278 | 320 | 335 | 306 | 357 | 362
16 | C[N+]1(C)[C@@H]2C[C@@H](OC(=O)[C@H](CO)c3ccccc3)C[C@H]1[C@@H]1O[C@@H]12.[Br-] | 448 | 467 | 462 | 456 | 424 | 435 | 457 | 423 | 442

Row | Structure (SMILES) | AUC of viability dose-response curve (SEM cells; HPLM + 10% dialyzed FBS) | AUC of viability dose-response curve (SEM cells; RPMI 5 mM glucose + 10% FBS) | AUC of viability dose-response curve (SEM cells; [1]) | AUC of viability dose-response curve (P12-Ichikawa; HPLM + 10% dialyzed FBS) | AUC of viability dose-response curve (P12-Ichikawa; RPMI 5 mM glucose + 10% FBS) | AUC of viability dose-response curve (P12-Ichikawa; [1]) | AUC of viability dose-response curve (NOMO1; HPLM + 10% dialyzed FBS) | AUC of viability dose-response curve (NOMO1; RPMI 5 mM glucose + 10% FBS) | AUC of viability dose-response curve (NOMO1; [1])
17 | CN1\C(=C(\O)C2=C(C=CS2)[S+]1([O-])=O)C(=O)NC3=CC=CC=N3 | 467 | 474 | 475 | 465 | 449 | 459 | 450 | 453 | 455
18 | Cc1cccc(-c2nn(C(=S)Nc3ccccc3)cc2-c2ccnc3ccccc23)n1 | 465 | 455 | 456 | 440 | 444 | 437 | 431 | 461 | 456
19 | CC1=C(C=CC=C1)N2\C(=N/C3=C(C(=CC=C3)C)C2=O)C[N]4N=CC5=C4N=CN=C5N | 469 | 470 | 471 | 368 | 366 | 377 | 329 | 307 | 341
20 | O=C(/C=C/c1c(C(=O)[O-])[nH]c2cc(Cl)cc(Cl)c12)Nc1ccccc1 | 466 | 466 | 463 | 466 | 464 | 467 | 471 | 444 | 462
21 | Cc1c(Cn2c(C)nc3c(C(=O)O)cc(N4CCOCC4)cc32)cccc1C(F)(F)F | 469 | 463 | 455 | 472 | 463 | 470 | 448 | 474 | 465
22 | CCOc1cc(N)c(Cl)cc1C(=O)NCC1CN(Cc2ccc(F)cc2)CCO1 (centres undefined) | 419 | 467 | 466 | 467 | 467 | 469 | 464 | 470 | 460
23 | O=C1\C=C/C[C@@H]2[C@H]3CCCN4CCC[C@@H](CN12)[C@@H]34 | 465 | 441 | 476 | 473 | 429 | 469 | 456 | 442 | 448
24 | Cn1c(Nc2ccc(C(F)(F)F)cc2)nc2cc(Oc3ccnc(-c4nc(C(F)(F)F)c[nH]4)c3)ccc21 | 402 | 389 | 395 | 441 | 425 | 431 | 444 | 454 | 446
25 | CCCCCCCc1ccc(CCc2cccc(O)c2C(=O)O)cc1 | 474 | 474 | 461 | 445 | 434 | 435 | 472 | 445 | 441
26 | O=C(O)c1ccc(-n2nc(-c3ccccc3O)nc2-c2ccccc2O)cc1 | 427 | 408 | 415 | 433 | 422 | 422 | 441 | 442 | 408
27 | CC1(C)C(=O)N(CCN2CCC(C(=O)c3ccc(F)cc3)CC2)c2ccccc21 | 471 | 455 | 471 | 469 | 472 | 462 | 468 | 465 | 459
28 | Cc1cccc(C)c1OCC(=O)N[C@@H](Cc1ccccc1)[C@@H](O)C[C@H](Cc1ccccc1)NC(=O)[C@H](C(C)C)N1CCCNC1=O | 391 | 435 | 435 | 443 | 448 | 414 | 443 | 418 | 422
29 | COc1cc2c(Nc3ccc(Cl)c(Cl)c3F)ncnc2cc1OC[C@@H]1C[C@@H]2CN(C)C[C@@H]2C1 | 383 | 358 | 379 | 388 | 388 | 401 | 355 | 437 | 418
30 | C[C@H]1C[C@H]2[C@@H]3CCC4=CC(=O)C=C[C@]4(C)[C@@]3(F)[C@@H](O)C[C@]2(C)[C@@]1(O)C(=O)CO | 358 | 338 | 305 | 362 | 322 | 303 | 429 | 470 | 459
31 | CCCCNc1cc(C(=O)O)cc([S+](N)(=O)[O-])c1Oc1ccccc1 | 419 | 433 | 440 | 458 | 465 | 465 | 477 | 427 | 461
